From publication PMC6030159 (Scientific Reports, 2018)
“Also recorded” adds a separate entry of the source.

Legend:
MYC bHLHZip = molecular target: T1, MYC bHLHZip (Homo sapiens, UniProt P01106); assay: MST direct binding to MYC
T1 construct: 6xHis (N); made in house; host or cells: E. coli BL21 (DE3), pET28a; purified in denaturing conditions
Experimental: (§1) To determine whether MYCMI-6 binds directly to MYC (or MAX), MST and SPR were applied. The bHLHZip domains of MYC or MAX, respectively (Suppl. Fig. S1C), were titrated and mixed with 3 μM of MYCMI-6.
(§2) MST was carried out on a Monolith NT.115 with blue/green filters, kindly provided by Luca Jovine, Karolinska Institutet Huddinge, according to manufacturer’s protocol (NanoTemper). MYCbHLHZip, MAXbHLHZip, BSA and BCL-XL recombinant proteins and compounds were diluted and titrated in PBS supplemented with 0.05% Triton-X-114 or 0.05% Tween-20. Titration of molecules was carried out in 16 PCR tubes into which a fixed concentration of fluorescent molecule was added. The mixture was applied to capillaries (standard treated, NanoTemper), and scanned in the Monolith NT.115 to measure initial fluorescence of molecule. MST was induced and fluorescence was measured during 40 seconds. Double measurements were carried out (MST power of 20% and 40%, or 40% and 60%) for each sample. Delta fluorescence or relative fluorescence of fluorescent molecule normalized to control vehicle was plotted against titrated molecule concentration. The protein labeling kit GREEN-NHS (NanoTemper) was used to label primary amines of proteins according to manufacture’s protocol.

BSA = tested on: T2, BSA; assay: SPR binding to BSA; parameters: species or system bovine
T2 construct: purchased NanoTemper (included in the MST kit)
Experimental: (§3) The MYC SPR assay was carried out as described above with MYCbHLHZip immobilized to a level of 800–1000 RU. For kinetic binding experiments, a Langmuir 1:1 binding event was applied using the Biacore T200 Evaluation Software 2.0 (GE Healthcare) to determine association (ka) and dissociation (kd) constants of the compound and to calculate affinity (KD) by the formula; KD = kd/ka. Binding responses from equilibrium binding experiments were plotted against compound concentration and KD values were determined at 50% of the theoretical Rmax with the formula Rmax = (MW analyte/MW ligand) × immobilized ligand level on the chip (RU) × stoichiometry (1:1). Same coupling method described above was used to immobilize the control proteins. MAX was immobilized to approximately 2000 RU, MAD to 600 RU, BSA to 1000 RU, p53 to 3000 RU and BCL-XL, to 500 RU.

MYCbHLHZip:MAXbHLHZip = molecular target: T3, MYCbHLHZip:MAXbHLHZip (Homo sapiens, UniProt P01106); assay: SPR MYC:MAX heterodimer formation assay; format: binding; conditions: 100 nM MYCbHLHZip over immobilized MAXbHLHZip
T3 construct: 6xHis (N); made in house; host or cells: E. coli BL21 (DE3), pET28a
Experimental: The SPR method is a highly sensitive assay to determine the affinity between protein and ligand and to measure the kinetics of the interaction. In the SPR MYC:MAX interaction assay, MAXbHLHZip was covalently attached onto a sensor chip and MYCbHLHZip pre-mixed with compound was injected over the surface and thereafter allowed to dissociate.
The SPR experiments were performed at 25 °C using a Biacore T200 (GE Healthcare) instrument kindly provided by SciLifeLab Solna. An amino coupling procedure was used to immobilize protein on a CM5 sensor chip (GE Healthcare). Sensorgrams were generated by subtraction of the reference (blank immobilized) surface. All details will be described in Castell et al. (manuscript in preparation). In general, for the MYC:MAX interaction assay, 200–500 RU of MAXbHLHZip was immobilized and 100 nM MYCbHLHZip pre-incubated with compound in PBS supplemented with 0.05% Tween-20 and 1% DMSO was injected with a flow rate of 30 µl/min and allowed to dissociate. MAX was regenerated by injection of PBS buffer supplemented with Urea.

MYCN:MAX interaction = tested on: T4, MYCN:MAX interaction; assay: isPLA MYCN:MAX on xenograft tumor tissue; format: in vivo, mouse; conditions: 20 mg/kg i.p. daily, 1–2 weeks, vs vehicle
T4 construct: from tissue; host or cells: SK-N-DZ xenograft tumour grown in athymic nude mice
Experimental: isPLA for tumor tissue was performed using 4% formaldehyde fixed paraffin embedded material. The tissue slides were deparaffinized at 65 °C for an hour, rehydrated in 1X Aqua De Par (Biocare Medical) and incubated at 80 °C for 10 min in a pressure chamber (Decloaking Chamber™ Biocare Medical). Slides were soaked in antigen retrieval buffer (10 mM sodium citrate, pH 6.0) and heated in the pressure chamber to 100 °C for 20 minutes, after which the temperature was lowered to 65 °C. Slides were removed from the chamber and cooled down to room temperature. The antigen retrieval buffer was replaced gradually by deionized H2O for 15 min. Slides were placed in blocking buffer (Duolink® isPLA kit) for 1.5 hours at 37 °C followed by an extra blocking step using the Mouse on Mouse (M.O.M.™) basic kit (Vector Laboratories) according to manufacturers’ protocol. isPLA was performed as above.
The last dose was administered 3 hrs before termination.

p53 core protein = tested on: T5, p53 core protein; assay: SPR binding to p53
T5 construct: Truncated p53 core protein was a kind gift from Klas Wiman; gift from Klas Wiman, CCK, Karolinska Institutet
Experimental: as §3

MAX bHLHZip [1] = molecular target: T6, MAX bHLHZip (Homo sapiens, UniProt P61244); assay: SPR binding to MAX
Experimental: as §3

HDM2 = tested on: HDM2; parameters: method as in PMID 19202599; conditions: cited from earlier work
p53 = tested on: p53; parameters: method as in PMID 19202599; conditions: cited from earlier work
[2] = tested on: TGR-1 (wt) Rat1 fibroblasts; assay: WST-1 growth assay, TGR-1 (wt) Rat1 fibroblasts; format: cell-based, rat
Experimental: Cell proliferation assays. Cell growth and viability was estimated in triplicates with WST-1
(Roche) or Resazurin sodium salt (Sigma-Aldrich) assays in medium at 37°C and 5% CO 2 for
2 hours after which absorbance or fluorescence, respectively, was measured with an Omega
Fluostar (BMG Labtech) in a 96 well plate format. […]
0.7% agarose. […]

MAX bHLHZip [3] = molecular target: T6, MAX bHLHZip; assay: MST direct binding to MAX; conditions: 3 μM MYCMI-6, MAX titrated
Experimental: as §1, §2

[4] = tested on: T7, bovine serum albumin (BSA); assay: MST binding to BSA; conditions: BSA titrated
T7 construct: purchased NanoTemper (included in the MST kit)
Source text: Data are shown as mean ± standard deviation of 5 biological repeats.

MAX:MAX = assay: MST MAX:MAX; format: binding; conditions: labeled MAX pre-mixed with 1 µM unlabeled MAX

T6 sequence (P61244 23-102 limits assumed): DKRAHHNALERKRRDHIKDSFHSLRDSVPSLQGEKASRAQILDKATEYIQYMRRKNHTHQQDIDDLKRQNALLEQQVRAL
T1 sequence (P01106 367-447 limits assumed): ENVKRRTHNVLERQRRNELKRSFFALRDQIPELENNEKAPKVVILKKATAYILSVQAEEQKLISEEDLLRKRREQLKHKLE
T3 sequence (P01106 367-447 limits assumed): as above

CCOc1ccc2nc3cc(/N=N/c4ccc(N)nc4N)ccc3c(N)c2c1 [MYCMI-6]
binding to MYC bHLHZip (MST) (MYC bHLHZip; 3 μM MYCMI-6, changes at 1–15 μM of MYC): binding of MYCMI-6 to MYC
concentration showing relative changes in thermophoresis of labeled MYC (reverse MST) (MYC bHLHZip; labeled MYC approximately 200 nM, MYCMI-6 titrated): above 100 nM
binding to BSA (SPR) (BSA): negligible
IC50 (MYCbHLHZip:MAXbHLHZip): 3.8 µM
MYCN:MAX interaction in tumors (isPLA) (MYCN:MAX interaction): significant reduction
binding to p53 (SPR) (p53 core protein): negligible
binding to MAX (SPR) (MAX bHLHZip [1]): negligible; also recorded: did not bind to MAX
IC50 for HDM2 relative to MYC:MAX in vitro (HDM2): approximately 10 fold
concentrations causing increased expression of p53 in cells (p53): ≥ 5 µM
growth of wt (TGR-1) cells [2]: strongly inhibited growth
binding to MAX bHLHZip (MST) (MAX bHLHZip [3]): no obvious changes; also recorded: did not bind to MAX
binding to BSA (MST) [4]: did not bind
effect on MAX:MAX (MST) (MAX:MAX): minor effects; also recorded: did not inhibit MAX:MAX homodimerization
